Two compounds from publication PMC3360746, “CD36 Inhibitors Reduce Postprandial Hypertriglyceridemia and Protect against Diabetic Dyslipidemia and Atherosclerosis” (PLoS ONE, 2012) can be followed below.

The assay has as its target T1, CD36 (Homo sapiens, UniProt P16671).
T1 construct: full length human CD36 stably expressed in HEK 293 cells
Kind of assay: inhibition of Cy3-ox-LDL binding to HEK-CD36 cells at […]°C; affinity cross-linking of ox-LDL to CD36. It counts as cell-based.

SMILES strings stand for the structures.

T1 sequence (P16671 2-472): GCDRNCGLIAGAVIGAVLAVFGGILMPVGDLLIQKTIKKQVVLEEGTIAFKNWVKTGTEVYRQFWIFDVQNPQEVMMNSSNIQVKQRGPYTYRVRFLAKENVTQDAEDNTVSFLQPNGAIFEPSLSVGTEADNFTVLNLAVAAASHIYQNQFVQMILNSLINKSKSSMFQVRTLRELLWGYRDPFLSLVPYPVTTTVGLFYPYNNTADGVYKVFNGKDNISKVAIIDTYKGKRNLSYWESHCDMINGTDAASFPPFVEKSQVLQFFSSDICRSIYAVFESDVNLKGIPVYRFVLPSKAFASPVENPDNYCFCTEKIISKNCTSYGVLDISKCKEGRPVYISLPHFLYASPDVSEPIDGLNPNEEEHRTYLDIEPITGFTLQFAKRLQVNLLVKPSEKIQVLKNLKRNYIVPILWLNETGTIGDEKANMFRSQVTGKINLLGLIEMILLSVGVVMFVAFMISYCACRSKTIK

Take `COc1cc(O)c(/C=N/NC(=O)c2ccc3nccn3c2)c(OC)c1` [AP5258]: the IC50 (usually the midpoint of a concentration-inhibition curve) is 5000 ± 1000 nM.
`COc1cc(O)c(/C=N/NC(=O)c2cc3ccccc3s2)c(OC)c1` [AP5055]: the IC50 stood at 1000 ± 100 nM.
